# In patent publication US10610520B2, “Heterocyclic compound” (Takeda Pharmaceutical Company Limited, priority 2016, dated 2020):
# Target: T1, His-hMAGL (recombinant polyhistidine tagged human MAGL protein) (Homo sapiens, UniProt Q99685)
# T1 construct: made in house; host or cells: E. coli BL21(DE3)
# T1 sequence (Q99685 1-303): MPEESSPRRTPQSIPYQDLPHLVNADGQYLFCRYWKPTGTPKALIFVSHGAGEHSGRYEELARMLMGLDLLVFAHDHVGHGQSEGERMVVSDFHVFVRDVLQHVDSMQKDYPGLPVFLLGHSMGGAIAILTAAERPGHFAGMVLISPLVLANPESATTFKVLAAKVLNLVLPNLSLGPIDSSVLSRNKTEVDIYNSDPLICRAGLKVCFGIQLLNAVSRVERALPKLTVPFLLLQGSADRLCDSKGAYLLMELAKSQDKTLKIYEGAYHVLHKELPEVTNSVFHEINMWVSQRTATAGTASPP
# Experiment: Measurement of MAGL inhibitory activity (arachidonic acid production from 2-arachidonylglycerol, RapidFire-mass spectrometry)
# Format: biochemical
# Settings: MAGL inhibitory rate, test compound 10 μM, 60 min preincubation, 2-arachidonylglycerol substrate
# Protocol: The His-hMAGL obtained above was diluted with enzyme reaction buffer (10 mM Tris-HCl, pH 7.5, 1 mM EDTA, 0.025 (w/v) % Triton X-100, 0.01% Bovine serum albumin) to a concentration of 7.5 ng/mL. […] Thereafter, to each well was added 5 μL of 150 μM 2-arachidonylglycerol (Tocris Bioscience), and the mixture was incubated at room temperature for 10 min. Then, 10 μL of 2% formic acid (Wako Pure Chemical Industries, Ltd.) was added to stop the reaction. Furthermore, acetonitrile (50 μL) containing 3 μM arachidonic acid-d8 (Cayman Chemical Company) was added and the mixture was stirred.
# The amount of arachidonic acid in the obtained enzyme reaction mixture was calculated by measuring by RapidFire-mass spectrometry and correcting by the amount of arachidonic acid-d8. High Throughput online solid phase extraction was performed using RapidFire 300™ system (Agilent Technologies, Inc.). Samples were loaded on SPE C4 cartridge (Agilent Technologies, Inc.) and desalted with 0.2 (v/v) % acetic acid (Wako Pure Chemical Industries, Ltd.) in ultrapure water/acetonitrile (70/30, v/v) at a flow rate of 1.5 mL/min, eluted at a flow rate of 0.5 mL/min with 0.2 (v/v) % acetic acid dissolved in acetonitrile/ultrapure water (90/10, v/v), and injected into the mass spectrometry part. The injection needle was washed with ultrapure water (500 millisecond) and acetonitrile (500 millisecond) to minimize carry-over. […] The RapidFire300 system was controlled by RapidFire UI software version 3.6 (Agilent Technologies, Inc.).
# The mass spectrometry of the resultant product was performed using API4000™ triple quadrupole mass spectrometer (AB SCIEX) equipped with an electrospray ion sauce (TurboIon Spray™) in a negative selected reaction monitoring (SRM) mode. The conditions of SRM are shown below. The parameters of the instrument were optimized as follows: capillary temperature 600° C., ion spray voltage −4.5 kV, collision gas 8, curtain gas 15 psi, ion source gas 1 60 psi, ion source gas 2 60 psi. The mass spectrometer was controlled by Analyst™ software version 1.5.1 (AB SCIEX). The peak area integration was analyzed using RapidFire integrator software version 3.6 (Agilent Technologies, Inc.).
# MAGL inhibitory rate (%) was calculated according to the following calculation formula. (1-(arachidonic acid production amount of test compound addition group−arachidonic acid production amount of enzyme-free group)÷(arachidonic acid production amount of test compound-free group−arachidonic acid production amount of enzyme-free group))×100
row,Structure (SMILES),inhibition at 10 µM [%]
1,"O=C1CCC2(CN(C(=O)c3ccc(-c4cccc(C5(C(F)(F)F)CC5)c4)cc3)C2)N1 [Example 64, 2-((3′-(1-(trifluoromethyl)cyclopropyl)biphenyl-4-yl)carbonyl)-2,5-diazaspiro[3.4]octan-6-one]",99
2,"O=C1CCC2(CN(C(=O)c3ccc(-c4ccc5sc(C(F)(F)F)nc5c4)cc3)C2)N1 [Example 65, 2-(4-(2-(trifluoromethyl)-1,3-benzothiazol-5-yl)benzoyl)-2,5-diazaspiro[3.4]octan-6-one]",85
3,"O=C1CCC2(CN(C(=O)c3ccc(-c4csc5ccccc45)cc3)C2)N1 [Example 67, 2-(4-(1-benzothiophen-3-yl)benzoyl)-2,5-diazaspiro[3.4]octan-6-one]",100
4,"O=C1CCC2(CN(C(=O)c3ccc(-c4ccc(F)c(F)c4F)cc3)C2)N1 [Example 69, 2-((2′,3′,4′-trifluorobiphenyl-4-yl)carbonyl)-2,5-diazaspiro[3.4]octan-6-one]",97
5,"O=C1CCC2(CN(C(=O)c3ccc(-c4cc(F)c(F)cc4F)cc3)C2)N1 [Example 70, 2-((2′,4′,5′-trifluorobiphenyl-4-yl)carbonyl)-2,5-diazaspiro[3.4]octan-6-one]",97
6,"O=C1CCC2(CN(C(=O)c3ccc(-c4ccc5sncc5c4)cc3)C2)N1 [Example 72, 2-(4-(1,2-benzothiazol-5-yl)benzoyl)-2,5-diazaspiro[3.4]octan-6-one]",97
7,"O=C1CCC2(CN(C(=O)c3ccc(-c4ccc5c(c4)OCC5)cc3)C2)N1 [Example 74, 2-(4-(2,3-dihydro-1-benzofuran-6-yl)benzoyl)-2,5-diazaspiro[3.4]octan-6-one]",95
8,"O=C1CCC2(CN(C(=O)c3ccc(-c4c(F)cccc4F)cc3)C2)N1 [Example 76, 2-((2′,6′-difluorobiphenyl-4-yl)carbonyl)-2,5-diazaspiro[3.4]octan-6-one]",85
9,"O=C1CCC2(CN(C(=O)c3ccc(-c4cc(F)ccc4Cl)cc3)C2)N1 [Example 79, 2-((2′-chloro-5′-fluorobiphenyl-4-yl)carbonyl)-2,5-diazaspiro[3.4]octan-6-one]",92
10,"O=C1CCC2(CN(C(=O)c3ccc(-c4cc(Cl)ccc4Cl)cc3)C2)N1 [Example 80, 2-((2′,5′-dichlorobiphenyl-4-yl)carbonyl)-2,5-diazaspiro[3.4]octan-6-one]",98
11,"Cc1ccc(Cl)c(-c2ccc(C(=O)N3CC4(CCC(=O)N4)C3)cc2)c1 [Example 81, 2-((2′-chloro-5′-methylbiphenyl-4-yl)carbonyl)-2,5-diazaspiro[3.4]octan-6-one]",94
12,"COc1ccc(Cl)c(-c2ccc(C(=O)N3CC4(CCC(=O)N4)C3)cc2)c1 [Example 82, 2-((2′-chloro-5′-methoxybiphenyl-4-yl)carbonyl)-2,5-diazaspiro[3.4]octan-6-one]",93
13,"Cc1ccc(-c2ccc(C(=O)N3CC4(CCC(=O)N4)C3)cc2)c(Cl)c1 [Example 83, 2-((2′-chloro-4′-methylbiphenyl-4-yl)carbonyl)-2,5-diazaspiro[3.4]octan-6-one]",96
14,"COc1ccc(-c2ccc(C(=O)N3CC4(CCC(=O)N4)C3)cc2)c(Cl)c1 [Example 85, 2-((2′-chloro-4′-methoxybiphenyl-4-yl)carbonyl)-2,5-diazaspiro[3.4]octan-6-one]",94
15,"Cc1ccc(-c2ccc(C(=O)N3CC4(CCC(=O)N4)C3)cc2)c(C)c1 [Example 88, 2-((2′,4′-dimethylbiphenyl-4-yl)carbonyl)-2,5-diazaspiro[3.4]octan-6-one]",98
16,"Cc1cccc(-c2ccc(C(=O)N3CC4(CCC(=O)N4)C3)cc2)c1C [Example 89, 2-((2′,3′-dimethylbiphenyl-4-yl)carbonyl)-2,5-diazaspiro[3.4]octan-6-one]",96
17,"Cc1ccc(C)c(-c2ccc(C(=O)N3CC4(CCC(=O)N4)C3)cc2)c1 [Example 90, 2-((2′,5′-dimethylbiphenyl-4-yl)carbonyl)-2,5-diazaspiro[3.4]octan-6-one]",92

# Further lines, results first:
row,inhibition at 10 µM [%],Structure (SMILES)
1,98,"O=C1CCC2(CN(C(=O)c3ccc(-c4coc5ccccc45)cc3)C2)N1 [Example 66, 2-(4-(1-benzofuran-3-yl)benzoyl)-2,5-diazaspiro[3.4]octan-6-one]"
2,93,"O=C1CCC2(CN(C(=O)c3ccc(-c4cc(F)c(F)c(F)c4)cc3)C2)N1 [Example 68, 2-((3′,4′,5′-trifluorobiphenyl-4-yl)carbonyl)-2,5-diazaspiro[3.4]octan-6-one]"
3,94,"COc1c(F)cc(-c2ccc(C(=O)N3CC4(CCC(=O)N4)C3)cc2)cc1F [Example 71, 2-((3′,5′-difluoro-4′-methoxybiphenyl-4-yl)carbonyl)-2,5-diazaspiro[3.4]octan-6-one]"
4,98,"O=C1CCC2(CN(C(=O)c3ccc(-c4ccc5cnsc5c4)cc3)C2)N1 [Example 73, 2-(4-(1,2-benzothiazol-6-yl)benzoyl)-2,5-diazaspiro[3.4]octan-6-one]"
5,90,"O=C1CCC2(CN(C(=O)c3ccc(-c4cccc5c4CCO5)cc3)C2)N1 [Example 75, 2-(4-(2,3-dihydro-1-benzofuran-4-yl)benzoyl)-2,5-diazaspiro[3.4]octan-6-one]"
6,88,"O=C1CCC2(CN(C(=O)c3ccc(-c4c(F)cc(F)cc4F)cc3)C2)N1 [Example 77, 2-((2′,4′,6′-trifluorobiphenyl-4-yl)carbonyl)-2,5-diazaspiro[3.4]octan-6-one]"
7,85,"COc1ccc(F)c(-c2ccc(C(=O)N3CC4(CCC(=O)N4)C3)cc2)c1F [Example 78, 2-((2′,6′-difluoro-3′-methoxybiphenyl-4-yl)carbonyl)-2,5-diazaspiro[3.4]octan-6-one]"
8,101,"O=C1CCC2(CN(C(=O)c3ccc(-c4ccc(Cl)cc4Cl)cc3)C2)N1 [Example 84, 2-((2′,4′-dichlorobiphenyl-4-yl)carbonyl)-2,5-diazaspiro[3.4]octan-6-one]"
9,97,"O=C1CCC2(CN(C(=O)c3ccc(-c4cccc(Cl)c4)cc3)C2)N1 [Example 86, 2-((3′-chlorobiphenyl-4-yl)carbonyl)-2,5-diazaspiro[3.4]octan-6-one]"
10,98,"O=C1CCC2(CN(C(=O)c3ccc(-c4ccc(Cl)cc4)cc3)C2)N1 [Example 87, 2-((4′-chlorobiphenyl-4-yl)carbonyl)-2,5-diazaspiro[3.4]octan-6-one]"
11,90,"Cc1c(F)ccc(F)c1-c1ccc(C(=O)N2CC3(CCC(=O)N3)C2)cc1 [Example 91, 2-((3′,6′-difluoro-2′-methylbiphenyl-4-yl)carbonyl)-2,5-diazaspiro[3.4]octan-6-one]"
12,96,"Cc1cc(C(F)(F)F)ccc1-c1ccc(C(=O)N2CC3(CCC(=O)N3)C2)cc1 [Example 92, 2-((2′-methyl-4′-(trifluoromethyl)biphenyl-4-yl)carbonyl)-2,5-diazaspiro[3.4]octan-6-one]"
13,82,"Cc1cc(C)c(-c2ccc(C(=O)N3CC4(CCC(=O)N4)C3)cc2)c(C)c1 [Example 93, 2-((2′,4′,6′-trimethylbiphenyl-4-yl)carbonyl)-2,5-diazaspiro[3.4]octan-6-one]"
